Assay results published in PMC9141032 (International Journal of Molecular Sciences, 2022).
Values joined by “and” are separate entries in the source; they are usually repeats but may differ in a detail not shown here. Equal entries are not always repeated.

What was measured:
SH-SY5Y cells [1] = assay: Nitrite production (Griess) in 6-OHDA-treated SH-SY5Y cells; assay type: cell-based, human; conditions: 1 μM, 6-OHDA 25 μM 16 h
From the text: Along with the neuronal loss, neuroinflammation is a process related to the onset of the disease, and it is an important contributor to the pathogenesis and progression of these disorders. […] .

mice = assay: Toxicity observation during the PK study; assay type: in vivo, mouse; conditions: single dose 10 mg/kg intraperitoneally
Description: Thus, two-month-old mice were treated with a single dose of 10 mg/kg intraperitoneally in ten groups (n = 3), for consecutive times: 0, 5, 15, 30 min and 1, 2, 4, 6, 8, 24 h. After treatment, mice were euthanized, and the plasma and brain were collected.

SAMP8 murine model = conditions: cited from earlier work
[2] = Metabolic stability in mouse liver microsomes; conditions: for % compound remaining: MLM
Description: The final concentration assay was 1
NADPH in 100 mM potassium phosphate buffer.
Spectrometer, Metabolite Pilot V 1.5 Software.
Method: Ionization mode, electrospray positive; adquisition mode, TOF MS with IDA MS/MS; column, Atlantis T3 C18, 2.1 x 15 mm, 3 μm; mobile phase, wa te r: acetonitrile: 0.1%: formic acid; flow rate, 0.3 mL/min; source temperature, 550 °C; column temperature, 25 °C; injection volume, 5 […]
concentration 1 mg/mL, NADPH 1.3 mM.
Table S5. Summary of LC‐MS conditions […]

[3] = Chemical stability in buffers at pH 2, 5 and 7.4
SH-SY5Y cells [4] = assay: Active caspase 3 in 6-OHDA-treated SH-SY5Y cells (immunodetection, Western blot); conditions: 1 μM, 16 h after 6-OHDA
[5] = Stability in mouse plasma; assay type: in vitro ADME; conditions: 10 µM, 37 °C
Description: The assessment of the plasma stability avoids misleading in vitro data and complex interpretation of the in vivo PK. […] Then, centrifugation led to a supernatant that was analysed for sample quantification.
Mouse plasma pooled from healthy donors extracted in citrate tubes was employed in the assay. […] Then, 100 µL of acetonitrile was added to precipitate the plasma protein, and the plate was centrifuged at 46,000× g for 60 min at 5 °C. Supernatant was taken and analysed by UPLC/MS/MS for sample quantification. The stationary phase was a reverse phase Acquity UPLC®BEH C18 1.7 µm (2.1 × 50 mm) (Waters), and the mobile phase was 0.1% formic acid in water/0.1% formic acid in acetonitrile, using a gradient and flow rate of 0.6 mL/min. The chromatographic equipment employed was an UPLC QSM Waters Acquity, and the compound concentrations were calculated from the MS peak areas.

SH-SY5Y cells [6] = assay: Protection of SH-SY5Y cells from 6-OHDA-induced death (MTT); conditions: 6-OHDA 25 μM 16 h
adult rats = tested on: adult rats; design: method as in ref 33 = [33]; PMID 32150414; doi:10.1021/acs.jmedchem.9b02080; 33. Abás S. Rodríguez-Arévalo S. Bagán A. Griñán-Ferré C. Vasilopoulou F. Brocos-Mosquera I. Muguruza C. Pérez B. Molins E. Luque F.J. Bicyclic α-Iminophosphonates as High Affinity Imidazoline I 2 Rec; conditions: 20 and 35 mg/kg intraperitoneally, 1 and 2 h postinjection; cited from earlier work
[7] = In vivo pharmacokinetics in plasma; design: species or system mouse
Description: After treatment, mice were euthanized, and the plasma and brain were collected.
Male CD1 mice were supplied by the Laboratory Animal Service of the University of Granada (Granada, Spain) and housed in the Animal Facilities of the Center of Biomedical Investigation of the University of Granada. […] Calculations were performed using noncompartmental analysis of plasma data after intraperitoneal injection by means of PK Solver 2.0.
Basic PK parameters were calculated.

primary microglial cells = assay: Nitrite production (Griess) in LPS-treated primary microglia; conditions: 1 μM 1 h, then LPS 10 μg/mL 24 h
SH-SY5Y cells [8] = assay: Cytotoxicity in SH-SY5Y cells (MTT); conditions: 24 h, 0.2 to 20 μM
culture cells = tested on: culture cells; design: method as in ref 32, 33 = [32]; 32. Escolano C. Pallás M. Griñán-Ferré C. Abás S. Callado L.-F. García-Sevilla J.A. Synthetic I 2 Imidazoline Receptor Ligands for Prevention or Treatment of Human Brain Disorders Patent WO 2019/12185 || [33]; PMID 32150414; doi:10.1021/acs.jmedchem.9b02080; 33. Abás S. Rodríguez-Arévalo S. Bagán A. Griñán-Ferré C. Vasilopoulou F. Brocos-Mosquera I. Muguruza C. Pérez B. Molins E. Luque F.J. Bicyclic α-Iminophosphonates as High Affinity Imidazoline I 2 Rec; conditions: plethora of culture cells; cited from earlier work
[9] = male, CD1, mouse, ip, plasma, mice, 10 mg/kg intraperitoneal
[10] = plasma, mice, 10 mg/kg intraperitoneal

For `CCOP(=O)(OCC)[C@]1(c2ccccc2)N=C[C@H]2C(=O)N(c3ccc(F)c(Cl)c3)C(=O)[C@H]21` (racemic) [B06, diethyl (1RS,3aSR,6aSR)-5-(3-chloro-4-fluorophenyl)-4,6-dioxo-1-phenyl-1,3a,4,5,6,6a-hexahydropyrrolo[3,4-c]pyrrole-1-phosphonate], the “effect on nitrite production” value (SH-SY5Y cells [1]) was “significantly reversed the increase in nitrite production”, the “toxicity in organs or tissues, de visu observation after euthanasia” value (mice) was “no toxicity in organs or tissues” and the “toxicity in the animals” value (mice; up to 24 h) was “not toxicity in any of the animals”. The “effect on cognition and behaviour” value (SAMP8 murine model) was “improving cognition and ameliorating anxiety-like behaviour”, the “% compound remaining” value ([2]; minus NADPH, 0 min) was 105.00 ± 23.97% and the “% compound remaining” value ([2]; minus NADPH, 60 min) was 83.20 ± 2.87%. The “% compound remaining” value ([2]; plus NADPH, 0 min) was 100.00 ± 25.58%, the “% compound remaining” value ([2]; plus NADPH, 5 min) was 135.00 ± 7.06% and the “% compound remaining” value ([2]; plus NADPH, 15 min) was 67.50 ± 4.15%. For the same compound, the “% compound remaining” value ([2]; plus NADPH, 30 min) was 30.30 ± 5.28%, the “% compound remaining” value ([2]; plus NADPH, 45 min) was 15.20 ± 1.98% and the “% compound remaining” value ([2]; plus NADPH, 60 min) was 6.08 ± 0.01%. The half-life at 1 μM ([2]; mouse, microsomes) was 16.2 min, the “% B06 Remaining” value ([3]; pH 2, 37 °C, 0 min) was 100 ± 8.84% and the “% B06 Remaining” value ([3]; pH 2, 37 °C, 5 min) was 104 ± 9.81%. For the same compound, the “% B06 Remaining” value ([3]; pH 2, 37 °C, 15 min) was 98 ± 11.30%, the “% B06 Remaining” value ([3]; pH 2, 37 °C, 30 min) was 106 ± 9.97% and the “% B06 Remaining” value ([3]; pH 2, 37 °C, 60 min) was 112 ± 11.2%. The “% B06 Remaining” value ([3]; pH 2, 37 °C, 120 min) was 96 ± 13.6%, the “chemical stability” value ([3]; pH 2, up to 120 min) was “stable at pH 2” and the “chemical stability” value ([3]; pH 5) was “stable up to 1 h”. For the same compound, the “% B06 Remaining” value ([3]; pH 5, 37 °C, 0 min) was 100 ± 3.3%, the “% B06 Remaining” value ([3]; pH 5, 37 °C, 5 min) was 97 ± 6.5% and the “% B06 Remaining” value ([3]; pH 5, 37 °C, 15 min) was 100 ± 3.9%. For the same compound, the “% B06 Remaining” value ([3]; pH 5, 37 °C, 30 min) was 87 ± 11.3%, the “% B06 Remaining” value ([3]; pH 5, 37 °C, 60 min) was 98 ± 10.1% and the “% B06 Remaining” value ([3]; pH 5, 37 °C, 120 min) was 75 ± 8.5%. The “% of the compound that suffered structural changes” value ([3]; pH 5, between 1 h and 2 h) was 25%, the “% B06 Remaining” value ([3]; pH 7.4, 37 °C, 0 min) was 100 ± 2.9% and the “% B06 Remaining” value ([3]; pH 7.4, 37 °C, 15 min) was 77 ± 3.8%. The “% B06 Remaining” value ([3]; pH 7.4, 37 °C, 30 min) was 75% and 75 ± 5.6%, the “% B06 Remaining” value ([3]; pH 7.4, 37 °C, 60 min) was 53 ± 6.4% and the “% B06 Remaining” value ([3]; pH 7.4, 37 °C, 120 min) was 19% and 19 ± 1.9%. For the same compound, the “% of the compound transformed” value ([3]; pH 7.4, 15 min) was 25%, the “effect on 6-OHDA-induced increase of cells expressing active caspase 3” value (SH-SY5Y cells [4]) was “this effect was reversed by the treatment with B06” and the “remaining percentage in mouse plasma” value ([5]; 0 min) was 100%. For the same compound, the “remaining percentage in mouse plasma” value ([5]; 10 min) was 100%, the “remaining percentage in mouse plasma” value ([5]; 20 min) was 69.7% and the “remaining percentage in mouse plasma” value ([5]; 40 min) was 48.3%. For the same compound, the “remaining percentage in mouse plasma” value ([5]; 60 min) was 21.6%, the “protection from 6-OHDA-induced cell death” value (SH-SY5Y cells [6]; 1 μM, 1 h pre-treatment) was “significantly rescued human dopaminergic cells from 6-OHDA-induced apoptosis” and the “lowest concentration at which the most beneficial effect was obtained” value (SH-SY5Y cells [6]; dose-response, MTT) was 1 µM. For the same compound, the “effect on body temperature” value (adult rats) was “hypothermia”, the AUC(0-inf) [7, 9] was 3050 ng·h/mL and the Tmax [7, 9] was 15 min. It also gave a Cmax ([7]; male, CD1, mouse, ip, plasma, mice, 10 mg/kg intraperitoneal, single dose) of 950 ± 624 ng/mL, an AUC(0-t) ([7]; male, CD1, mouse, ip, plasma, mice, 10 mg/kg intraperitoneal, read-out: AUC0–1440 (converted)) of 2950 ng·h/mL and a half-life ([7]; male, CD1, mouse, plasma, ip, 10 mg/kg, mice, 10 mg/kg intraperitoneal) of 313 min. The “Cl (plasma clearance)” value [7, 10] was 0.054 ± 0.011 (mg/kg)/(μg/mL), the “Vz (volume of distribution)” value [7, 10] was 24.56 ± 4.74 (mg/kg)/(μg/mL) and the t1/2 ([7]; plasma, mice, 10 mg/kg intraperitoneal, 10 mg/kg) was 312.81 min. The “maximum mean concentration in plasma as % of the drug administered” value ([7]; single dose intraperitoneally) was ≤ 1%, the “effect on nitrite production” value (primary microglial cells) was “significant decrease in nitrite production” and the “cytotoxic effect on cell cultures (MTT)” value (SH-SY5Y cells [8]) was “None of the concentrations used were cytotoxic”. The cytotoxicity (culture cells) was “devoid of cytotoxicity”.
